Data reported in paper PMC12175894 (Science Advances, 2025).
Positions count from the first letter of the chain named.

What was measured:
male C56BL/6 mice [1] = assay: Hargreaves test; type: in vivo, mouse; settings: for response latency, Hargreaves: 10 mg/kg i.p.
5-HT1AR [2] = biological target: T1, 5-HT1AR (Homo sapiens, UniProt P08908); assay: Complementation-based β-arrestin 2 recruitment PathHunter assay; settings: for Emax: relative to serotonin
T1 sequence (P08908 1-422): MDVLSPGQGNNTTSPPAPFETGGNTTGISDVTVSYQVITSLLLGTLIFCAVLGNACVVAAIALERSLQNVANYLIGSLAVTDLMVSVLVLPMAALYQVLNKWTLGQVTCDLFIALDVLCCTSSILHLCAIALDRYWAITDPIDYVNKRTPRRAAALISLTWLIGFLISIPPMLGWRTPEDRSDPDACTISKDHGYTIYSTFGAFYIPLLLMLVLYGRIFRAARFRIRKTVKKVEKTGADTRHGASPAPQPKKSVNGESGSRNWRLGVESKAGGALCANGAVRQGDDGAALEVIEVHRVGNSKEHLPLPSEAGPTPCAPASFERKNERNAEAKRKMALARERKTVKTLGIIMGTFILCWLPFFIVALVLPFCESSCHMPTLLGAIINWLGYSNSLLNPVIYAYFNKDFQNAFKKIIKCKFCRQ

5-HT1AR + GαoA = biological target: T2, 5-HT1AR + GαoA (Homo sapiens, UniProt P08908); assay: GloSensor cAMP in HEK293AΔGi/o co-transfected with GαoA; type: cell-based
T2 construct: host or cells: HEK293AΔGi/o
T2 sequence (P09471 2-354 partner limits assumed, one chain of several): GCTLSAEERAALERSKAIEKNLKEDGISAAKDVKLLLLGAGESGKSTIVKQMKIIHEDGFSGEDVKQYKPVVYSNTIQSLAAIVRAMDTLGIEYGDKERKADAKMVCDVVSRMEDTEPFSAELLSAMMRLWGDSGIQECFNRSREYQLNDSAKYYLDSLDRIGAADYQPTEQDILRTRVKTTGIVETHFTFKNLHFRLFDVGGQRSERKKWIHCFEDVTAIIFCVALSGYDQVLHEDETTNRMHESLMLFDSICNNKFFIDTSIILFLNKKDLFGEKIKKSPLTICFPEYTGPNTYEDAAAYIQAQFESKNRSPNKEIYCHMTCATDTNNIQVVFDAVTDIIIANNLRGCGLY

5-HT1AR [3] = biological target: T1, 5-HT1AR; assay: GloSensor cAMP assay in HEK293A cells deficient of β-arrestins; type: cell-based; set-up: host or cells: HEK293T, HEK293A, HEK293AΔGs, HEK293AΔGi/o, HEK293AΔARRB1/B2
5-HT1AR F112^3.28W = biological target: T3, 5-HT1AR F112^3.28W (Homo sapiens, UniProt P08908, F112W); assay: β-arrestin 2 recruitment, enhanced bystander BRET in HEK293T with GRK2; settings: HEK-293T, read-out: Emax [% ± SEM], β-arrestin 2 recruitment
T3 sequence (P08908 1-422 F112W): T1 sequence (P08908 1-422) with F112W

male C56BL/6 mice [4] = assay: CFA-induced inflammatory pain model; type: in vivo, mouse
5-HT1AR wildtype [5] = biological target: T4, 5-HT1AR wildtype (Homo sapiens, UniProt P08908); assay: GloSensor cAMP assay in HEK293A cells; type: cell-based
T4 construct: host or cells: HEK293T, HEK293A, HEK293AΔGs, HEK293AΔGi/o, HEK293AΔARRB1/B2
T4 sequence (P08908 1-422): T1 sequence (P08908 1-422)

[6] = biological target: T5, 5-HT1AR F112^3.28W + M92^2.60F (Homo sapiens, UniProt P08908, F112W/M92F); assay: GloSensor inhibition of cAMP accumulation in HEK293AΔGs; type: cell-based; settings: for Emax: read-out: Emax [% ± SEM], inhibition of cAMP accumulation
T5 sequence (P08908 1-422 M92F/F112W): T1 sequence (P08908 1-422) with M92F, F112W

5-HT1AR wildtype [7] = biological target: T4, 5-HT1AR wildtype; assay: as above; type: cell-based
5-HT1AR + Gαz = biological target: T6, 5-HT1AR + Gαz (Homo sapiens, UniProt P08908); assay: GloSensor cAMP in HEK293AΔGi/o co-transfected with Gαz; type: cell-based
T6 construct: host or cells: HEK293AΔGi/o
T6 sequence (P19086 2-355 partner limits assumed, one chain of several): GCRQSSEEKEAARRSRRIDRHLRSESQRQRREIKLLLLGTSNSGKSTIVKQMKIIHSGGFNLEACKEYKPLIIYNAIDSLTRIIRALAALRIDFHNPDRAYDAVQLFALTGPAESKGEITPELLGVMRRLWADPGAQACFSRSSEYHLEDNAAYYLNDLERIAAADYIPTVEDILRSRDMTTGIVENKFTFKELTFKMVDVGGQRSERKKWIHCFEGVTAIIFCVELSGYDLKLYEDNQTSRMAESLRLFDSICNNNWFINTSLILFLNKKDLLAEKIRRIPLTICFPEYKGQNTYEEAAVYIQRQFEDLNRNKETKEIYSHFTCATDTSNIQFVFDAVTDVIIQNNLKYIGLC

5-HT1AR Y96^2.64A = biological target: T7, 5-HT1AR Y96^2.64A (Homo sapiens, UniProt P08908, Y96A); assay: Radioligand competition, displacement of [3H]WAY100635; type: binding; settings: for decrease of affinity when Y96^2.64 and Q97^2.65 were replaced by alanine: Y96A and Q97A mutants vs WT
T7 sequence (P08908 1-422 Y96A): T1 sequence (P08908 1-422) with Y96A

[8] = read-out: Emax, β-arrestin 2 recruitment, PathHunter, elevated GRK2
[9] = read-out: Emax, β-arrestin 2 recruitment, PathHunter, native GRK2
[10] = HEK293-A, read-out: Emax [%±SEM], inhibition of cAMP accumulation
[11] = HEK293-A; read-out: Emax [%±SEM], inhibition of cAMP accumulation

COc1ccccc1OCCNCCCOc1ccc2c(c1)NC(=O)CO2 [ST171]
response latency, Hargreaves (male C56BL/6 mice [1]): antinociceptive
antinociception, Hargreaves, lower doses (male C56BL/6 mice [1]; 1 and 5 mg/kg): not as antinociceptive as the 10 mg/kg dose
EC50 (5-HT1AR [2]): 5.5 ± 1.4 nM
Emax (5-HT1AR [2]; [8]): 15%
Emax (5-HT1AR [2]; [9]): < 5%
Emax (5-HT1AR + GαoA): 100%
EC50 (5-HT1AR + GαoA; HEK293AΔGi/o + GαoA, read-out: EC50 [nM ± SEM], inhibition of cAMP accumulation): 4.1 ± 1 nM
Emax (5-HT1AR [3]; [10]): 60%
EC50 (5-HT1AR [3]; HEK Δβ-arrestin, GloSensor; read-out: EC50 left [nM±SEM], inhibition of cAMP accumulation): 3.5 ± 1 nM
Emax (5-HT1AR F112^3.28W): < 5%
mechanical thresholds of the injured hind paw, CFA model (male C56BL/6 mice [4]; 10 mg/kg intraperitoneal): significantly increased the mechanical thresholds
Emax (5-HT1AR wildtype [5]; [10]): 86 ± 5%
EC50 (5-HT1AR wildtype [5]; HEK293A, GloSensor, wildtype; read-out: EC50 left [nM±SEM], inhibition of cAMP accumulation): 3.4 ± 0.8 nM
EC50 ([6]; HEK293AΔGs, F112W + M92F, read-out: EC50 [nM ± SEM], inhibition of cAMP accumulation): 1.8 ± 0.6 nM
Emax [6]: 85 ± 11%
EC50 (5-HT1AR wildtype [7]; HEK293AΔGs, wildtype, read-out: EC50 [nM ± SEM], inhibition of cAMP accumulation): 5.3 ± 0.8 nM
Emax [% ± SEM], inhibition of cAMP accumulation (5-HT1AR wildtype [7]; HEK293AΔGs, wildtype, relative to serotonin): 74 ± 3%
Emax (5-HT1AR wildtype [7]; read-out: Emax [% ± SEM], inhibition of cAMP accumulation, HEK293AΔGs, wildtype, relative to serotonin): 73%
Emax (5-HT1AR + Gαz): 93%
Ki (5-HT1AR Y96^2.64A; 5-HT1AR Y96A, HEK 293T membranes, read-out: Ki [nM ± SEM]): 63 nM
decrease of affinity when Y96^2.64 and Q97^2.65 were replaced by alanine (5-HT1AR Y96^2.64A): more than 150 fold

Cc1ccc(CNCC2(F)CCN(C(=O)c3ccc(F)c(Cl)c3)CC2)nc1 [befiradol, reference compound]
response latency, Hargreaves (male C56BL/6 mice [1]): antinociceptive
increase in efficacy with elevated vs native GRK2 (5-HT1AR [2]; PathHunter β-arrestin 2): approximately 30%
increase of potency with elevated vs native GRK2 (5-HT1AR [2]; PathHunter β-arrestin 2): 4 fold
Emax (5-HT1AR [2]; [8]): 96 ± 3%
Emax (5-HT1AR [2]; [9]): 67%
Emax (5-HT1AR + GαoA): 107 ± 3%
Emax (5-HT1AR [3]; [11]): 89 ± 4%
Esat [%±SEM] (5-HT1AR [3]; HEK Δβ-arrestin, GloSensor): 73 ± 5%
Emax (5-HT1AR F112^3.28W): 86 ± 3%
mechanical sensitivity, CFA model (male C56BL/6 mice [4]; nonsedating dose 1 mg/kg): reduced the mechanical sensitivity
Emax (5-HT1AR wildtype [5]; [11]): 93 ± 2%
Esat [%±SEM] (5-HT1AR wildtype [5]; HEK293A, GloSensor, wildtype): 75 ± 3%
Emax [6]: 99 ± 7%
Emax (5-HT1AR wildtype [7]; read-out: Emax [% ± SEM], inhibition of cAMP accumulation): 87 ± 3%
Emax (5-HT1AR + Gαz): 95 ± 2%
decrease of affinity when Y96^2.64 and Q97^2.65 were replaced by alanine (5-HT1AR Y96^2.64A): 4.2- to 13.3 fold
